Laboratory results from PMC9896555, “Cyclic Acetals as Novel Long-Lasting Mosquito Repellents” (Journal of Agricultural and Food Chemistry, 2023).

Legend:
Aedes albopictus [1] = experiment: Protection time at 0.17 mg/cm2, human-bait technique; assay type: in vivo; details: for Average PT >95% (% coefficient of variation) / Estimated 100% PT (complete protection time, mean±SE): at the dose of 0.17mg/cm2; for Estimated 100% PT (complete protection time, mean±SE): Kaplan–Meier estimate; for repellent activity, in words: against A. albopictus
Protocol: To evaluate the protection time of derivatives, the PE % was measured with 100 μL of a 5% ethanol solution, corresponding to 0.17 mg/cm^2 of exposed skin, under the same laboratory conditions. Mosquito-exposed skin was treated with 100 μL of ethanol, as the negative hand control. For each volunteer (up to 8), the test was performed every hour, up to 8 h from the application. The protection time of DEET and Icaridin was measured under the same conditions. Since these trials were run in parallel with those aimed to profile the cytotoxicity of the compounds (paragraph 2.6), we interrupted the experiments for those compounds showing to have higher cytotoxicity than Icaridin and DEET as soon as the results were available. For this reason, the number of volunteers differs among the compounds.
The average time until protection which was higher than 95% protection time was considered for each compound. Moreover, for the compounds tested on at least three volunteers, the complete (100%) protection time was also estimated (SPSS 28.01.0) using the Kaplan–Meier survivor function procedure.[22]

Aedes albopictus [2] = experiment: Effective dose / protection efficacy, human-bait technique; assay type: in vivo
Protocol: The repellence of DEET, Icaridin (both supplied by Istituto Biochimico VEBI s.r.l.), acetals, and the synthesized hydroxyacetals was evaluated againstAedes albopictususing the human-bait technique (to simulate the condition of human skin on which repellents will be applied).[22]A. albopictuswas reared and tested at 26 ± 2 °C, ≥60 ± 10% relative humidity (RH), and at 14:10 h light/dark photoperiod, within Plexiglas cylindrical laboratory cages (35 cm diameter, 60 cm length) with one end closed by a net. During the tests, cages contained ≈150 nulliparous, 4–7 day-old, nonblood-fed females. For each compound to be tested, up to six volunteers participated in the trial.
The study was approved by the Regional Ethics Committee for Clinical Trials of Tuscany Region with the registered number 20383. Volunteers agreed to take part in the experiments following informed consent; only volunteers non-allergic to mosquito bites participated in the trials. On the day of the bioassay, they had no contact with lotions, perfumes, oils, or perfumed soaps. They wore latex surgical gloves, in which a dorsal square area of 30 cm^2 was cut open. Mosquito-exposed skin was treated with 50 μL of ethanol, as the negative hand control. The other hand was treated with 50 μL of the tested compounds in ethanol solution (dosages corresponding to 0.081, 0.17, 0.33, 0.5, 0.83, 1.7, 8.3, 16.7, and 83.3 μg/cm^2). Both hands were presented in the same test cage. The number of probing mosquitoes in a 3 min exposure period was recorded. During each test, the control and the treated hand were presented interchanged to verify the mosquitoes’ readiness to bite. Trials were considered valid only if at least 30 mosquitoes performed probing behavior on the control hand before each repellent dosage was tested. The protection efficacy (PE %) obtained from all replicates was calculated, according to the WHO guidelines[31] using this formula [drawing 1]
To evaluate the protection efficacy, volunteers applied increasing doses of the compounds to the skin on the back of their hands (30 cm^2, while the rest was covered with a rubber glove) and counted the number of mosquitoes attempting to bite; the solvent only was used on the control hand. The protection (percentage of repelled mosquitoes) was calculated as reported in the Material and Methods section.

| Structure (SMILES) | Protection time PE% (Aedes albopictus [1]; 0.17mg/cm2, 0 min) [%] | Protection time PE% (Aedes albopictus [1]; 0.17mg/cm2, 1 h) [%] | Protection time PE% (Aedes albopictus [1]; 0.17mg/cm2, 2 h) [%] | Protection time PE% (Aedes albopictus [1]; 0.17mg/cm2, 3 h) [%] | Protection time PE% (Aedes albopictus [1]; 0.17mg/cm2, 4 h) [%] | Protection time PE% (Aedes albopictus [1]; 0.17mg/cm2, 5 h) [%] | Protection time PE% (Aedes albopictus [1]; 0.17mg/cm2, 6 h) [%] | Protection time PE% (Aedes albopictus [1]; 0.17mg/cm2, 7 h) [%] | Protection time PE% (Aedes albopictus [1]; 0.17mg/cm2, 8 h) [%] | Average PT >95% (% coefficient of variation) (Aedes albopictus [1]) | Estimated 100% PT (complete protection time, mean±SE) (Aedes albopictus [1]) [min] | further results |
| --- | --- | --- | --- | --- | --- | --- | --- | --- | --- | --- | --- | --- |
| CCCC1(CCC)OCC(CC)(CO)CO1 [7c] | 99.35 | 94.12 | 97.7 | 98.08 | 99.4 | 91.72 | 97.22 | 94.29 | 94.44 | 360 (3.3) min | 60 ± 34 | – |
| CCCCCCCCCC1OCC(O)CO1 (stereo not drawn) [trans-18a.6] | – | – | – | – | – | – | – | – | – | – | – | repellent activity, in words (Aedes albopictus [1]): inactive as a repellent |
| CCCCC(CC)C1OCC(CO)O1 (mixture of isomers) [10a] | 100 | 100 | 100 | 100 | 100 | 97.5 | 100 | 63.17 | – | 360 (56.8) min | – | – |
| CC1(CO)COC(C)(C)OC1 [5b] | – | – | – | – | – | – | – | – | – | 0 min | – | repellent activity, in words (Aedes albopictus [1]): lack of activity |
| CCCCCCCC1OCC(C)(CO)CO1 (mixture of isomers) [9b] | 97.02 | 98.5 | – | 98.35 | 100 | 97.67 | 93.8 | 96.63 | 91.73 | 420 (5.6) min | 120 ± 105 | – |
| CC(C)c1ccc(C2OCC(CO)O2)cc1 (mixture of isomers) [21a] | – | – | – | – | – | – | – | – | – | 0 min | – | – |
| CCCCCC1(CCCCC)OCC(CO)O1 (racemic) [23a] | 100 | 99.62 | 98.79 | 97.92 | 98.99 | 88.68 | 97.92 | 92.53 | 92.80 | 360 (4.8) min | 240 ± 65 | Protection efficacy PE% (Aedes albopictus [2]; 0.081 µg/cm2): 33.33%; Protection efficacy PE% (Aedes albopictus [2]; 0.17 µg/cm2): 54.16%; Protection efficacy PE% (Aedes albopictus [2]; 0.33 µg/cm2): 97.01%; Protection efficacy PE% (Aedes albopictus [2]; 0.5 µg/cm2): 76.81%; Protection efficacy PE% (Aedes albopictus [2]; 0.83 µg/cm2): 76.67%; Protection efficacy PE% (Aedes albopictus [2]; 1.7 µg/cm2): 93.75%; Protection efficacy PE% (Aedes albopictus [2]; 8.3 µg/cm2): 88.23%; Protection efficacy PE% (Aedes albopictus [2]; 16.7 µg/cm2): 98.04%; Protection efficacy PE% (Aedes albopictus [2]; 83.3 µg/cm2): 100%; 100% PE (Aedes albopictus [2]; Table S1): 83.3 µg/cm2 |
| CCCCCCCCC1OCC(CO)O1 (mixture of isomers) [13a] | 99.47 | 100 | 100 | 99.41 | 100 | 97.22 | 99.06 | 96.82 | 82.75 | 420 (4.7) min | 270 ± 77 | – |
| CC(C)(C)C1CCC2(CC1)OCC(CO)O2 (mixture of isomers) [19a] | – | – | – | – | – | – | – | – | – | 0 min | – | – |
